These results are taken from patent US20250221966A1, “RXFP1 AGONISTS” (BRISTOL-MYERS SQUIBB COMPANY, priority 2021, published 2025).

For this assay, the target named is T1, human RXFP1 (Homo sapiens, UniProt Q9HBX9).
T1 construct: expressed in transfected cells
T1 sequence (Q9HBX9 1-757): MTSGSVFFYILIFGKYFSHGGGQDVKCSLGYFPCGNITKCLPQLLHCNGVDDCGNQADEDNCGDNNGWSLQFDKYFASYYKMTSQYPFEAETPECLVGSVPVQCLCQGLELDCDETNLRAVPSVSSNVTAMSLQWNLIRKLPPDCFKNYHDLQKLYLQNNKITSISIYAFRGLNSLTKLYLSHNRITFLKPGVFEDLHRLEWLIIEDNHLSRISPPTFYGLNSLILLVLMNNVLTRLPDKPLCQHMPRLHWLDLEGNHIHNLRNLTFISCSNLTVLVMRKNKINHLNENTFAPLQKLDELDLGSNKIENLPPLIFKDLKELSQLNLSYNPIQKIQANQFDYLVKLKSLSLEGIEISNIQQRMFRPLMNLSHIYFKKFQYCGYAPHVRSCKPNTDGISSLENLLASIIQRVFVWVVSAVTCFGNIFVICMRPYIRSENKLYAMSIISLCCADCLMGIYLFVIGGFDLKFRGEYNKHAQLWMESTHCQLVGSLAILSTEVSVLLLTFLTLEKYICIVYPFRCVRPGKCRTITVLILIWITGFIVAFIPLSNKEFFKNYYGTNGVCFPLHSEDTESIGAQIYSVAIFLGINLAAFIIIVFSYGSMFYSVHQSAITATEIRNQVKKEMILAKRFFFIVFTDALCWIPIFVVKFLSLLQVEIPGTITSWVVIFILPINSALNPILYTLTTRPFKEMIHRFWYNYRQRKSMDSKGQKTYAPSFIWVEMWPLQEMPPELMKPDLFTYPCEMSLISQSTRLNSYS
The assay can be described thus: RXFP1 cAMP assay (hRXFP1 HEK293 cAMP assay, HTRF). Type of assay: cell-based. To be noted: HEK293 cells stably expressing human RXFP1, 30 min at room temperature, read-out: cAMP hRXFP1 HEK293 Assay EC50. The essentials:
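Intracellular cAMP was read by HTRF, with potency fitted to a 4-parameter logistic curve. Compound exposure (0.010 nM–50 μM final, 2% DMSO) lasted 30 min at room temperature. Cells were hRXFP1-HEK293 at 1500 per well in IBMX-containing (0.5 mM) HEPES-buffered HBSS.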
For orientation: Cyclic AMP is a second messenger, typically raised through Gs and lowered through Gi signalling.
Broadly, the EC50 is the midpoint of the concentration-response curve. With `COc1ccc(-c2cc(C(=O)O)ccc2F)cc1C(=O)N[C@@H]1C2CCC(/C2=C/C2CC2)[C@@H]1C(=O)NC1CCOCC1` (some centres unmarked) [compound 204], the half-maximal effective concentration (EC50) worked out at 3200 nM.

In the case of `COc1ccc(C2=NOC3CCC(O)C23)cc1C(=O)N[C@H]1[C@@H](C(=O)Nc2ccc(F)c(C(F)(F)F)c2)[C@H]2CC[C@@H]1/C2=C\C1CC1` (single isomer, unassigned) [compound 496], the EC50 came out at 10.5 nM.

As for `CC(F)(F)COc1ccc(C2=NOC3COCC23)cc1C(=O)N[C@@H]1C2CCC(/C2=C/C2CC2)[C@@H]1C(=O)Nc1ccc(F)c(C(F)(F)F)c1` (some centres unmarked) [compound 790], the EC50 worked out at 4.9 nM.

Consider `COc1ccc(C2=NOC3COCC23)cc1C(=O)N[C@H]1[C@@H](C(=O)NC(C)(C)c2ccccc2Cl)[C@H]2CC[C@@H]1/C2=C\C1CC1` (some centres unmarked) [compound 669], for which the EC50 amounted to 416 nM.

`COc1ccccc1C(=O)N[C@H]1[C@@H](C(=O)Nc2ccc(F)c(C(F)(F)F)c2)[C@H]2CC[C@@H]1/C2=C\c1ccccc1` [compound 90]: the EC50 was found to be 330 nM.

For `COc1ccc(-c2cc(C(N)=O)ccc2F)cc1C(=O)N[C@@H]1C2CCC(C2=C(C)C)[C@@H]1C(=O)Nc1ccc(F)c(C(F)(F)F)c1` (some centres unmarked) [Example 121], the concentration for a half-maximal effect (EC50) was found to be 16 nM.

Consider `Cc1ccc(C2=NOC3COCC23)cc1C(=O)N[C@H]1[C@@H](C(=O)Nc2ccc(F)c(C(F)(F)F)c2)[C@H]2CC[C@@H]1/C2=C\C1CC1` (single isomer, unassigned) [compound 654], for which the EC50 amounted to 300 nM.

As to `COc1ccc(-c2cc([C@H](OC(=O)NC3CCC3)C(F)(F)F)ccc2F)cc1C(=O)N[C@@H]1C2/C(=C\C(F)(F)F)C(C(O)C2O)[C@@H]1C(=O)Nc1ccc(F)c(C(F)(F)F)c1` (some centres unmarked) [Example 348], the EC50 was found to be 1310 nM.

On to `COc1ccc(C2=NOC3COCC23)cc1C(=O)N[C@H]1[C@@H](C(=O)NCC2CCC2)[C@H]2CC[C@@H]1/C2=C\C1CC1` (some centres unmarked) [compound 597], for which the concentration giving a half-maximal response (EC50) amounted to 102 nM.

Regarding `COc1ccc(-c2cc(C(=O)N3CCC(O)CC3)on2)cc1C(=O)N[C@H]1[C@@H](C(=O)Nc2ccc(F)c(C(F)(F)F)c2)[C@H]2CC[C@@H]1/C2=C\C1CC1` [Example 594], the 50% effective concentration (EC50) was found to be 91.4 nM.

`COc1ccc(C2=NOC3COCC23)cc1C(=O)N[C@H]1[C@@H](C(=O)N[C@@H](C)c2ccccc2C(F)(F)F)[C@H]2CC[C@@H]1/C2=C\C1CC1` (some centres unmarked) [compound 665]: the half-maximal effective concentration (EC50) was found to be 373 nM.

Regarding `COc1ccc(-c2cc(C(=O)Nc3nnn[nH]3)ccc2F)cc1C(=O)N[C@@H]1C2CCC(/C2=C/c2cnoc2)[C@@H]1C(=O)Nc1ccc(F)c(C(F)(F)F)c1` (some centres unmarked) [Example 192], the EC50 turned out to be 135 nM.

For `COc1ccc(N2CCCC(CO)C2)cc1C(=O)NC1C2CCC(/C2=C/C(F)(F)F)C1C(=O)Nc1ccc(F)c(C(F)(F)F)c1` (stereo in doubt) [Example 329, (1R,2R,3R,4R,Z)—N-(4-fluoro-3-(trifluoromethyl)phenyl)-3-(5-(3-(hydroxymethyl)piperidin-1-yl)-2-methoxybenzamido)-7-(2,2,2-trifluoroethylidene)bicyclo[2.2.1]heptane-2-carboxamide], the EC50 was 4810 nM.

`O=C(N[C@H]1[C@@H](C(=O)Nc2ccc(F)c(C(F)(F)F)c2)[C@H]2CC[C@@H]1/C2=C\C1CC1)c1cc(C2=NOC3CC(CO)CC23)cc(F)c1OCC1CC1` (some centres unmarked) [compound 794]: the half-maximal effective concentration (EC50) was 3.2 nM.

`COCCOc1ccc(C2=NOC3COCC23)cc1C(=O)N[C@H]1[C@@H](C(=O)Nc2ccc(F)c(C(F)(F)F)c2)[C@H]2CC[C@@H]1/C2=C\C1CC1` (single isomer, unassigned) [Example 452]: the 50% effective concentration (EC50) came out at 1.8 nM.

As to `COc1ccc(C2CCN(C(=O)C(C)(C)O)C2)cc1C(=O)N[C@@H]1C2CCC(C2=CC2CC2)[C@@H]1C(=O)Nc1ccc(F)c(C(F)(F)F)c1` (some centres unmarked) [compound 555], the EC50 stood at 41.4 nM.

Regarding `COc1ccc(N2CC(CN)CC2=O)cc1C(=O)N[C@H]1[C@@H](C(=O)Nc2ccc(F)c(C(F)(F)F)c2)[C@H]2CC[C@@H]1/C2=C\C1CC1` (some centres unmarked) [compound 712], the 50% effective concentration (EC50) was 1600 nM.

In the case of `COc1ccc(C2=NOC3COCC23)cc1C(=O)N[C@H]1[C@@H](C(=O)NCC(C)(C)OC)[C@H]2CC[C@@H]1/C2=C\C1CC1` (some centres unmarked) [compound 564], the concentration giving a half-maximal response (EC50) came out at 47.3 nM.

With `COc1ccc(-c2cc(C(O)C(=O)O)ccc2F)cc1C(=O)NC1C2CCC(/C2=C/C2CC(F)(F)C2)C1C(=O)Nc1ccc(F)c(C(F)(F)F)c1` (centres unmarked) [compound 353], the EC50 is 11 nM.

On to `COc1ccc(C2=NO[C@H]3C[C@H](CO)C[C@@H]23)cc1C(=O)N[C@H]1[C@@H](C(=O)N[C@H](C)C2(C)CC2)[C@H]2CC[C@@H]1/C2=C\CC(O)C(F)(F)F` (some centres unmarked) [compound 815], for which the EC50 worked out at 1.5 nM.

`COc1c(F)cc(C2=NOC3CC(O)(C(F)(F)F)CC23)cc1C(=O)N[C@H]1[C@@H](C(=O)Nc2ccc(F)c(C(F)(F)F)c2)[C@H]2CC[C@@H]1/C2=C\C1CC(F)(F)C1` (some centres unmarked) [compound 914]: the EC50 was found to be 7.8 nM.

Consider `COc1cc(C)c(C2=NOC3COCC23)cc1C(=O)N[C@H]1[C@@H](C(=O)Nc2ccc(F)c(C(F)(F)F)c2)[C@H]2CC[C@@H]1/C2=C\C1CC1` (single isomer, unassigned) [compound 686], for which the EC50 is 653 nM.

`COc1ccc(C2=NOC(CC(=O)O)C2)cc1C(=O)N[C@@H]1C2CCC(/C2=C/C2CC2)[C@@H]1C(=O)Nc1ccc(F)c(C(F)(F)F)c1` (single isomer, unassigned) [Example 390]: the concentration giving a half-maximal response (EC50) was determined as 37 nM.

With `O=C(N[C@H]1[C@@H](C(=O)Nc2ccc(F)c(C(F)(F)F)c2)[C@H]2CC[C@@H]1/C2=C\C1CC1)c1cc(C2=NOC3CC(CO)CC23)ccc1OCCCF` (some centres unmarked) [compound 788], the EC50 is 4.3 nM.

Take `CNC(=O)OC(C(=O)NOC)c1ccc(F)c(-c2ccc(OC)c(C(=O)N[C@@H]3C4CCC(/C4=C/C4CC4)[C@@H]3C(=O)Nc3ccc(F)c(C(F)(F)F)c3)c2)c1` (some centres unmarked) [compound 234]: the EC50 was found to be 1 nM.

For the compound `COc1ccc(-c2cc(C(NC(=O)C3CCOCC3)C(=O)O)ccc2F)cc1C(=O)N[C@H]1[C@@H](C(=O)Nc2ccc(F)c(C(F)(F)F)c2)[C@H]2CC[C@@H]1/C2=C\C1CC(F)(F)C1` (some centres unmarked) [compound 943], the concentration for a half-maximal effect (EC50) stood at 1.7 nM.

`COc1ccc(N2CCC(NC(=O)C3CCOCC3)C2)cc1C(=O)N[C@@H]1C2CCC(/C2=C/C(F)(F)F)[C@@H]1C(=O)Nc1ccc(F)c(C(F)(F)F)c1` (single isomer, unassigned) [compound 336]: the EC50 stood at 1930 nM.

`COc1ccc(-c2cc(C(OC(=O)NC3CCC3)C(=O)O)ccc2F)cc1C(=O)N[C@H]1[C@@H](C(=O)Nc2ccc(F)c(C(F)(F)F)c2)[C@H]2CC[C@@H]1/C2=C\C1CCCC1` (some centres unmarked) [compound 936]: the concentration for a half-maximal effect (EC50) is 1.4 nM.

On to `COc1ccc(C2=NOC3CC(CO)CC23)cc1C(=O)N[C@H]1[C@@H](C(=O)Nc2ccc(F)c(C(F)(F)F)c2)[C@H]2CC[C@@H]1/C2=C\C1CCC1` (some centres unmarked) [compound 446], for which the 50% effective concentration (EC50) came to 0.6 nM.

On to `COc1ccc(-n2nccc2C(=O)O)cc1C(=O)N[C@@H]1C2CCC(/C2=C/C(F)(F)F)[C@@H]1C(=O)Nc1ccc(F)c(C(F)(F)F)c1` (some centres unmarked) [compound 345], for which the 50% effective concentration (EC50) came out at 1400 nM.

In the case of `O=C(N[C@H]1[C@@H](C(=O)Nc2ccc(F)c(C(F)(F)F)c2)[C@H]2CC[C@@H]1/C2=C\C1CC1)c1cc(C2=NOC3CC(CO)CC23)ccc1OCCCF` (some centres unmarked) [compound 787], the EC50 came to 4.2 nM.

Consider `COc1ccc(C2CC3CNS(=O)(=O)C32)cc1C(=O)N[C@H]1[C@@H](C(=O)Nc2ccc(F)c(C(F)(F)F)c2)[C@H]2CC[C@@H]1/C2=C\C1CC1` (single isomer, unassigned) [compound 732], for which the EC50 was 99 nM.

Regarding `COc1ccc(C#N)cc1C(=O)N[C@@H]1C2CCC(/C2=C/c2ccccc2)[C@@H]1C(=O)Nc1ccc(F)c(C(F)(F)F)c1` (some centres unmarked) [compound 128], the half-maximal effective concentration (EC50) turned out to be 55 nM.

Regarding `COc1cc(F)c(F)cc1C(=O)NC1C2CCC(C2=Cc2ncco2)C1C(=O)Nc1ccc(F)c(C(F)(F)F)c1` (centres unmarked) [Example 145], the half-maximal effective concentration (EC50) was 1300 nM.

With `COc1ccc(-c2cc(C(OC(=O)NC3CCCC3)C(F)(F)F)ccc2F)cc1C(=O)N[C@@H]1C2CCC(/C2=C/C2CC2)[C@@H]1C(=O)Nc1ccc(F)c(C(F)(F)F)c1` (some centres unmarked) [compound 219], the concentration giving a half-maximal response (EC50) stood at 3 nM.

For the compound `COc1ccc(-c2ccc(C(CC(=O)O)C(F)(F)F)cc2F)cc1C(=O)N[C@H]1[C@@H](C(=O)Nc2ccc(F)c(C(F)(F)F)c2)[C@H]2CC[C@@H]1/C2=C\C1CCCC1` (some centres unmarked) [compound 892], the EC50 worked out at 9.9 nM.

`COc1ccc(C2=NOC(CCO)C2CCO)cc1C(=O)N[C@H]1[C@@H](C(=O)Nc2ccc(F)c(C(F)(F)F)c2)[C@H]2CC[C@@H]1/C2=C\C1CC1` (some centres unmarked) [compound 501]: the EC50 was 11.6 nM.

In the case of `COc1ccc(-c2cccc(CC(F)(F)F)c2)cc1C(=O)N[C@@H]1C2CCC(/C2=C/C2CC2)[C@@H]1C(=O)Nc1ccc(F)c(C(F)(F)F)c1` (some centres unmarked) [compound 287], the EC50 came out at 7 nM.
